Source: US11266617B2, “Beta-hydroxybutyrate encapsulated PLGA nanoparticle compositions” (Massachusetts Institute of Technology, priority 2018, dated 2022)

Tests used:
[1] = system: Hmgcs2-null ISCs; assay: Organoid-forming assay with Hmgcs2-null crypts/ISCs; format: cell-based, mouse; details: for organoid-forming capacity of Hmgcs2-null ISCs: lactate at comparable concentrations, day-5-to-7 organoids
Source text: FIGS. 11A-11N. Characterization of fatty acid oxidation (FAO) and ketogenesis in intestinal crypts. Related to FIG. 4. FIG. 11A, Schematic of the mouse model for intestinal Cpt1a deletion with the timeline for tamoxifen (TAM) injections and tissue collection. FIG. 11B, Immunohistochemistry (IHC) for CPT1a (rate limiting step of FAO) and FIG. 11C, HMGCS2 levels in WT and intestinal Cpt1a loss. Images represent one of 5 biological replicates per group. FIG. 11D, βOHB levels in Cpt1a-null intestinal crypts. n=8 measurements for 4 mice per group. […] The image represents one of 8 biological replicates. FIG. 11F, IHC for HMGCS2, indicating intact HMGCS2 expression in the absence of Paneth cell. The image represents one of 8 biological replicates. For FIGS. 11C-11F, Scale bar: 50 um. FIG. 11G, Schematic of the mouse model for intestinal Hmgcs2 deletion with the timeline for TAM injections and tissue collection. FIG. 11H, Hepatic and intestinal HMGCS2 expression by IHC and FIG. 11I, serum βOHB levels in Hmgcs2-KO mice. FIG. 11J, Intestinal CPT1a expression in mice with conditional intestinal loss of Hmgcs2 by IHC, Scale bar: 100 um. The image represents one of 5 biological replicates. […] FIG. 11L, Organoid-forming assay for number of organoids per intestinal crypt, numbers of Alcian blue^+ goblet cells (black arrows) and percentage of tdTomato^+ area per organoid from WT and Hmgcs2-KO (−/−) ISCs, ±βOHB treatments: +, 10 uM and ++50 uM. Representative images: day-5-to-7 organoids. Scale bar: 50 μm. n=5 mice. […] N, Synthesis of glycerol tri((R)-3-hydroxybutyrate).
As previously reported and briefly summarized here (Mihaylova et al., 2018), small intestines were removed, washed with cold PBS, opened longitudinally and then incubated on ice with PBS plus EDTA (10 mM) for 30-45 min. Tissues were then moved to PBS. Crypts were then mechanically separated from the connective tissue by shaking or by scraping, and then filtered through a 70-μm mesh into a 50-mL conical tube to remove villus material and tissue fragments. Isolated crypts for cultures were counted and embedded in Matrigel™ (Corning 356231 growth factor reduced) at 5-10 crypts per μL and cultured in a modified form of medium as described previously (Sato et al., 2009; Yilmaz et al., 2012). Unless otherwise noted, crypt culture media consists of Advanced DMEM (Gibco) that was supplemented with EGF 40 ng mL^−1 (PeproTech), Noggin 200 ng mL^−1 (PeproTech), R-spondin 500 ng mL^−1 (R&D, Sino Bioscience or (Ootani et al., 2009)), N-acetyl-L-cysteine […] (Sigma-Aldrich), N2 1× (Life Technologies), B27 1× (Life Technologies), CHIR99021 3 μM (LC laboratories), and Y-27632 dihydrochloride monohydrate 10 μM (Sigma-Aldrich). Intestinal crypts were cultured in the above-mentioned media in 20-25 μL droplets of Matrigel™ were plated onto a flat bottom 48-well plate (Corning 3548) and allowed to solidify for 20-30 minutes in a 37° C. incubator. Three hundred microliters of crypt culture medium was then overlaid onto the Matrigel™, changed every three days, and maintained at 37° C. in fully humidified chambers containing 5% CO2. Clonogenicity (colony-forming efficiency) was calculated by plating 50-300 crypts and assessing organoid formation 3-7 days or as specified after initiation of cultures. β-Hydroxybutyrate (Sigma, 54965), Quisinostat (JNJ-26481585) 2HCl (Selleckchem, S1096), Entinostat (MS-275) (Selleckchem, S1053), Trichostatin A (Selleckchem, 51045) and γ-secretase inhibitor MK-0752 (Cayman Chemical Company, 471905-41-6) were added into cultures as indicated in the figure legends. Plasmids for Hdac1 CRISPR-deletion (sc-436647), Cre-expression (sc-418923), Cre-expression and Hmgcs2 CRISPR-deletion (VB180615-1103gue) were used for organoid transfection according to manufacturers' instructions.
If not directly used for cultures, crypts were then dissociated into single cells and sorted by flow cytometry. […]

[2] = system: Hes1-GFP organoids; assay: Hes1-GFP organoid reporter assay (GFP by flow cytometry); format: cell-based, mouse; details: GSI 10 uM, βOHB 50 uM, JNJ-26481585 0.2 nM; compared to control
Experimental: FIGS. 5A-5G show βOHB-mediated HDAC inhibition enhances NOTCH signaling. FIG. 5A, Violin plots of genes related to FIG. 12A: Notch receptor Notch1, Class I HDAC genes: HDAC1/2/3 and Notch target Hes1, based on a previously published scRNA-Seq data (Haber et al., 2017). FIG. 5B, Representative flow cytometry plots (top) and quantification of GFP expression (bottom) Hes1-GFP+ primary organoids exposed to γ-secretase inhibitor (GSI, 10 uM), βOHB (50 uM) and HDAC inhibitor (JNJ-26481585, 0.2 nM), compared to control condition. n=6 samples per treatment from n=3 mice. FIG. 5C, Organoid-forming assay for intestinal crypts isolated from WT and Hmgcs2-KO mice, with combinations of HDAC inhibitor JNJ-26481585 (JNJ) or βOHB treatments or Notch receptor inhibitor (GSI, gamma secretase inhibitor). Quantification and representative images: day-5-to-7 organoids. n=4 mice. Scale bar: 500 μm. Arrows indicate organoids and asterisks indicate aborted crypts. FIG. 5D, Schematic (top) of the mouse model including the timeline of tamoxifen (TAM) and HDACi (JNJ) injection and tissue collection. Nuclear NICD, a measure of Notch activation, by immunofluorescence (IF). […] FIG. 5E, Quantification of OLFM4^+ stem cells, LYZ+ Paneth cells and AB/PAS+ goblet cells in proximal jejunal crypts by IHC. […] FIG. 5G, Quantification and representative images of tdTomato+ Lgr5^+ ISC-derived lineage (cell progenies) by IHC. […] For box-and-whisker plots (FIG. 5C) data were expressed as box-and-whisker 10 to 90 percentiles, Data in bar graph (FIG. 5D) and dot plot (FIG. 5E and FIG. 5G) are expressed as mean+/−s.e.m. *p<0.05, **p<0.01, ***p<0.005, ****p<0.0001. […]
As previously reported and briefly summarized here (Mihaylova et al., 2018), small intestines were removed, washed with cold PBS, opened longitudinally and then incubated on ice with PBS plus EDTA (10 mM) for 30-45 min. […] Isolated crypts for cultures were counted and embedded in Matrigel™ (Corning 356231 growth factor reduced) at 5-10 crypts per μL and cultured in a modified form of medium as described previously (Sato et al., 2009; Yilmaz et al., 2012). […]

[3] = system: intestinal crypts; assay: HDAC inhibitor treatment of Hmgcs2-null mice, crypt histology (NICD, H3K27ac, OLFM4, LYZ, AB/PAS); format: in vivo, mouse; details: 1 mg/kg, 5 i.p. injections
[4] = system: Lgr5+ ISCs; assay: Intestinal regeneration after irradiation in Hmgcs2-KO mice (Lgr5 lineage tracing); format: in vivo, mouse; details: Hmgcs2-null mice; 1 mg/kg, 5 i.p. injections; XRT 7.5 Gy×2
Source text: FIG. 4F, Schematic (top) of the mouse model including the timeline of tamoxifen (TAM) injection, oral administration of nanoparticle PLGA encapsulated βOHB or non-encapsulated βOHB oligomers, irradiation (XRT, 7.5 Gy×2) and tissue collection. Quantification (bottom) and representative images (right) of tdTomato+ Lgr5^+ ISC-derived lineage (cell progenies) by IHC. Scale bar: 100 μm. n>25 crypts per measurement, n>5 measurements per mouse and n>3 mice per group. […] Data in dot plots were expressed as mean+/−s.e.m. *p<0.05, **p<0.01, ***p<0.005.

[5] = system: class I HDACs; details: reported (Shimazu et al., 2013); cited from earlier work

SMILES: O=C(O)CC[C@H]1CC[C@@](c2cc(F)ccc2F)(S(=O)(=O)c2ccc(Cl)cc2)CC1 [GSI, MK-0752]
- restoration of organoid-forming capacity of Hmgcs2-null crypts by βOHB or JNJ under NOTCH blockade ([1]; GSI added to βOHB or JNJ treated cultures): prevented the ability of either βOHB or JNJ HDAC inhibitor
- GFP expression of Hes1-GFP organoids (NOTCH target gene expression) [2]: dampened GFP expression

SMILES: Nc1ccccc1NC(=O)c1ccc(CNC(=O)OCc2cccnc2)cc1 [MS-275, Entinostat (MS-275)]
- Hmgcs2-null organoid function ([1]; 10-to-100 nM): rescued
- Hmgcs2-null organoid function ([1]; doses beyond 10-to-100 nM): failed to do so

SMILES: Cn1cc(CNCC2CCN(c3ncc(C(=O)NO)cn3)CC2)c2ccccc21 [Quisinostat, Quisinostat (JNJ-26481585) 2HCl]
- crypt organoid-forming capacity of Hmgcs2-null crypts ([1]; HDAC inhibitor at a dose shown to block HDAC1 activity, alone or with βOHB): rescued crypt organoid-forming capacity
- GFP expression of Hes1-GFP organoids (NOTCH target gene expression) [2]: increased GFP expression
- decline in ISCs numbers (OLFM4+ stem cells) [3]: rescued
- decrease in numbers of H3K27ac or NICD positive crypt cell nuclei [3]: prevented these changes
- expansion of secretory cell types [3]: rescued
- ISC function after injury [4]: rescued

SMILES: CC(O)C(=O)O (centres unmarked) [lactate]
- organoid-forming capacity of Hmgcs2-null ISCs ([1]; βOHB 10 uM and 50 uM): not
- organoid-forming capacity of Hmgcs2-null ISCs ([1]; βOHB 10 uM and 50 uM, listed as Lactate): did not affect

SMILES: CC(O)CC(=O)O (stereo not drawn) [βOHB, β-hydroxybutyrate]
- secretory lineage bias of Hmgcs2-null organoids ([1]; βOHB 10 uM and 50 uM, Alcian blue+ goblet cells): rectified
- organoid-forming capacity of Hmgcs2-null ISCs ([1]; βOHB 10 uM and 50 uM): rectified
- generation of tdTomato+ clones by Hmgcs2-null ISCs ([1]; βOHB 10 uM and 50 uM, tdTomato+ area per organoid): rectified
- GFP expression of Hes1-GFP organoids (NOTCH target gene expression) [2]: increased GFP expression
- inhibition of class I HDACs [5]: endogenous inhibitor for class I HDACs
